Like-named read-outs stand apart in the source and are kept apart here.
Key:
[1] = tested on: patients with solid tumors
Method: The safety endpoint was the incidence of adverse events. Tumor response rate, as assessed by Response Evaluation Criteria in Solid Tumors (RECIST) in patients with measurable disease, was an exploratory endpoint.
Enrollment of a minimum of six evaluable patients per cohort was planned. If patients discontinued the study before week 5 for any reason other than a DLT, additional patients could be enrolled to meet this goal. The selected motesanib doses (50 mg QD, 100 mg QD, 125 mg QD, and 75 mg BID) were based on the tolerability profiles of motesanib administered as monotherapy and in combination with gemcitabine that were obtained in previous studies. The BID dosing regimen is expected to achieve higher predose motesanib concentrations in the plasma than QD dosing owing to the higher total dose administered and more frequent dosing.
Treatment continued until the end of week 48 (11 cycles), or until disease progression, death, or unacceptable toxicity occurred. Motesanib administration (in cohorts 1-4) began on day 2 of week 2 of the first cycle and continued throughout the study. Patients experiencing continuous clinical benefit (stable disease or response) at the end of 48 weeks were eligible to continue motesanib monotherapy under a separate protocol.
Patients enrolled in cohort 1 received an initial dose of motesanib of 50 mg QD. If ≤ 2 patients experienced a DLT during the first 5 weeks of treatment, enrollment into cohort 2 (motesanib 75 mg BID) and cohort 3 (motesanib 125 mg QD) began simultaneously. If ≤ 2 patients in cohort 3 experienced a DLT in the first 5 weeks of treatment, the 125-mg QD dose would be considered the target once-daily dose.
All adverse events were graded by the investigator according to National Cancer Institute Common Terminology Criteria for Adverse Events (CTCAE) version 3.0. All adverse events were classified according to relatedness to treatment and seriousness. […]

CYP1A2 = settings: cited from earlier work
[2] = tested on: patients with advanced solid tumors; set-up: method as in PMID 17557949; settings: monotherapy; cited from earlier work

CC1(C)CNc2cc(NC(=O)c3cccnc3NCc3ccncc3)ccc21 [motesanib]
Patients with dose-limiting toxicities, all cohorts ([1]; human, in vivo, 5 weeks): 11 patients | Maximum tolerated dose (MTD) ([1]; in combination with erlotinib only (150 mg QD)): 125 mg QD | Maximum tolerated dose (MTD) ([1]; in combination with gemcitabine (1000 mg/m^2 weekly) and erlotinib (100 mg QD)): 100 mg QD | Effect on CYP1A2 (CYP1A2): inducer | Maximum tolerated dose (MTD) [2]: 125 mg QD

Source: paper PMC3161034 (BMC Cancer, 2011)
